Data set [1] can be described thus: Brain-to-plasma ratio after intraperitoneal administration in male CD-1 mice (LC-MS/MS of plasma and brain homogenate). It counts as in vivo. The settings on record: for concentration at 1 h / concentration at 3 h / Kp at 1 h / Kp at 3 h: male, CD-1, mouse, ip; for Kp at 1 h / Kp at 3 h: brain/plasma. As for the experimental part:
(§1) In this study, the brain-to-plasma ratio of compounds of the invention was evaluated after intraperitoneal dosing in fasted male CD-1 mice. Test compounds were dosed at 50 mg/kg in sterile water for injection. Plasma and brain homogenate levels were determined at 1 and 3 hours post dose by LC-MS/MS. […] Penetration of the present compounds through the blood-brain barrier allows the compounds to exerts their receptor binding activity to achieve the therapeutic effects.
All data are expressed as ng/mL (equivalent to ng/g for calculation of brain:plasma ratio) of the free drug. Samples that were below the limit of quantitation were not used in the calculation of averages.
Brain-to-plasma ratios were determined by dividing the brain concentration in ng/g by the plasma concentration in ng/g.
Brain samples were homogenized with a Virsonic 100 ultrasonic homogenizer. Each brain sample was first weighed, and then an appropriate volume of 20:80 methanol:water was added to make a 4 mL/1 gram sample. Samples were then homogenized on ice, and stored frozen until analysis.
Standards samples were prepared in either CD-1 Mouse plasma containing K2EDTA as an anticoagulant or CD-1 mouse brain homogenate. Working solutions (200 μg/mL and/or 20 μg/mL for each test compound) was prepared in 50:50 ACN:water. Then, a nine-point calibration curve was prepared at concentrations of 2000, 1500, 1000, 500, 100, 50, 20, 10, and 5 ng/mL of each test compound by serial dilution; or for a high-sensitivity method, another nine point calibration curve was prepared at concentrations of 200, 150, 100, 50, 10, 5, 2, 1, and 0.5 ng/mL of each test compound by serial dilution. Standard samples were treated identically to the study samples.
Plasma and brain homogenate samples were extracted via acetonitrile precipitation on a Tomtec Quadra 96-Model 320 liquid handling system in a 96-well plate format.
HPLC Conditions • Instrument: Perkin Elmer series 200 micropumps and Autosampler • Column: Phenomenex Synergi Polar-RP, 4μ, 80A, 50×2.0 mm • Mobile Phase Buffer: 40 mM ammonium formate, pH 3.5 • Aqueous Reservoir (A): 10% buffer, 90% water • Organic Reservoir (B): 10% buffer, 90% acetonitrile • Gradient Program:
• Flow Rate: 400 μL/min • Injection Volume: […], • Run Time: 5.0 min • Column Temperature: ambient • Autosampler Wash Solution #1: ACN:IPA:H2O 40:30:30 (v/v/v) w/0.2% formic acid • Autosampler Wash Solution #2: MeOH:H2O 50:50 (v/v) Mass Spectrometer Conditions (for Calibration Curve from 5 to 2000 ng/mL) • Instrument: PE Sciex API 4000 • Interface: Electrospray (“Turbo Ion Spray”) • Mode: Multiple Reaction Monitoring (MRM) • Gases: CUR 20, GS1 20, GS2 10, CAD Medium, IS 5200 • Source Temperature: 500° C., ihe OFF • Voltages and Ions Monitored*:
Mass Spectrometer Conditions (for Calibration Curve from 0.5 to 200 ng/mL, High Sensitivity Method) • Instrument: PE Sciex API 4000 Q TRAP • Interface: Electrospray (“Turbo Ion Spray”) • Mode: Multiple Reaction Monitoring (MRM) • Gases: CUR 20, GS1 20, GS2 10, CAD Medium, IS 5200 • Source Temperature: 500° C., ihe OFF • Voltages and Ions Monitored*: […]

The nature of data set [2]: Observations and adverse reactions after intraperitoneal administration in CD-1 mice. It counts as in vivo. The settings on record: IP 50 mg/kg. As for the experimental part:
as §1

Where [3] appears, read: 1.0 hr after IP dosing at 50 mg/kg, individual fasted male CD-1 mice, 50 mg/kg.
[4] abbreviates: 1.0 hr after IP dosing at 50 mg/kg, individual mice, 50 mg/kg.
Where [5] appears, read: 1.0 hr after IP dosing at 50 mg/kg, mean of mice, 50 mg/kg.
The mark [6] stands for this setting: 3.0 hr after IP dosing at 50 mg/kg, individual fasted male CD-1 mice, BLQ = below 0.5 ng/mL, 50 mg/kg.
[7] abbreviates: 3.0 hr after IP dosing at 50 mg/kg, individual mice, 50 mg/kg.
Where [8] appears, read: 50 mg/kg, 1.0 hr after IP dosing at 50 mg/kg, mean of mice, read-out: Average B:P Ratio.
The mark [9] stands for this setting: 50 mg/kg, 3.0 hr after IP dosing at 50 mg/kg, individual mice, read-out: B:P Ratio.
Where [10] appears, read: 50 mg/kg, 3.0 hr after IP dosing at 50 mg/kg, mean of mice (Compound-3: one animal only), read-out: Average B:P Ratio.
Setting [11] is: plasma, 50 mg/kg, 1.0 hr after IP dosing at 50 mg/kg, individual mice, read-out: Plasma Conc.

“And” between values parts separate entries of the source, which are not always exact repeats. Identical values can stand only once. Like-named read-outs stand apart in the source and are kept apart here.

In the case of `CC(c1ccc(N(CCO)CCO)cc1)c1ccc(N(CCO)CCO)cc1` [Compound-3, 2,2′,2″,2′″-((ethane-1,1-diylbis(4,1-phenylene))bis(azanetriyl))-tetraethanol], the “Brain Tissue Homogen. Conc” value in data set [1] (setting [3]) was 2.87 µg/mL and 2.24 µg/mL; in data set [1] (setting [6]) it was “BLQ”. Besides, the “B:P Ratio” value in data set [1] (setting [4]) was 0.27 and 0.36. The “Brain Tissue Conc” value in data set [1] (setting [4]) was 14.4 µg/mL and 11.2 µg/mL. Moreover, the “Plasma Conc” value in data set [1] (setting [4]) is 52.6 ng/mL and 30.9 ng/mL; in data set [1] (setting [7]), 2.02 ng/mL and 1.67 ng/mL. Further, the “Average B:P Ratio” value in data set [1] (setting [5]) turned out to be 0.328; in data set [1] (3.0 hr after IP dosing at 50 mg/kg, mean of mice (Compound-3: one animal only)), 1.14. Also, the concentration at 1 h in data set [1] (brain homogenate, 50 mg/kg, 1.0 hr after IP dosing at 50 mg/kg, individual fasted male CD-1 mice, read-out: Brain Tissue Homogen. Conc) worked out at 2210 ng/mL; in data set [1] (brain, 50 mg/kg, 1.0 hr after IP dosing at 50 mg/kg, individual mice, read-out: Brain Tissue Conc) it was 11100 ng/mL; in data set [1] (setting [11]), 31.8 ng/mL. The concentration at 3 h in data set [1] (brain homogenate, 50 mg/kg, 3.0 hr after IP dosing at 50 mg/kg, individual fasted male CD-1 mice, BLQ = below 0.5 ng/mL, read-out: Brain Tissue Homogen. Conc) was found to be 611 ng/mL; in data set [1] (brain, 50 mg/kg, 3.0 hr after IP dosing at 50 mg/kg, individual mice, read-out: Brain Tissue Conc), 3060 ng/mL; in data set [1] (plasma, 50 mg/kg, 3.0 hr after IP dosing at 50 mg/kg, individual mice, read-out: Plasma Conc), 2.67 ng/mL. The Kp at 1 h stood at 0.35 in data set [1] (50 mg/kg, 1.0 hr after IP dosing at 50 mg/kg, individual mice, read-out: B:P Ratio) and 0.328 ± 0.048 in data set [1] (setting [8]). Moreover, the Kp at 3 h in data set [1] (setting [9]) and in data set [1] (setting [10]) was 1.14 in each case. In addition, the “Adverse effects after intraperitoneal administration” value in data set [2] was “No adverse effects were observed”.
Regarding `COCCN(CCOC)c1ccc(C(C)c2ccc(N(CCOC)CCOC)cc2)cc1` [Compound-2, 4,4′-(ethane-1,1-diyl)bis(N,N-bis(2-methoxyethyl)aniline)], the “Brain Tissue Homogen. Conc” value in data set [1] (setting [3]) was 41.6 µg/mL and 122 µg/mL and 25.2 µg/mL; in data set [1] (setting [6]), 26.3 µg/mL and 12.2 µg/mL and 6.22 µg/mL. In addition, the “B:P Ratio” value was 0.58 and 0.99 and 0.34 in data set [1] (setting [4]); 0.56 and 0.49 in data set [1] (setting [7]). Moreover, the “Brain Tissue Conc” value is 208 µg/mL and 610 µg/mL and 126 µg/mL in data set [1] (setting [4]); 132 µg/mL and 61.0 µg/mL and 31.1 µg/mL in data set [1] (setting [7]). Moreover, the “Plasma Conc” value in data set [1] (setting [4]) is 614 ng/mL and 369 ng/mL; in data set [1] (setting [7]), 202 ng/mL and 108 ng/mL and 63.1 ng/mL. Also, the “Average B:P Ratio” value in data set [1] (setting [5]) is given as 0.638; in data set [1] (3.0 hr after IP dosing at 50 mg/kg, mean of mice (Compound-3: one animal only), 50 mg/kg), 0.570. In data set [1] (setting [8]), the Kp at 1 h turned out to be 0.638 ± 0.33. Besides, the Kp at 3 h in data set [1] (setting [9]) is 0.65; in data set [1] (setting [10]), 0.57 ± 0.079. Moreover, in data set [1] (setting [11]), the concentration at 1 h was 359 ng/mL. Besides, the “Adverse effects after intraperitoneal administration” value in data set [2] is reported as “No adverse effects were observed”.

Source of the values: patent publication US9828330B2, “Non-peptide BDNF neurotrophin mimetics” (PHARMATROPHIX, INC., priority 2013, dated 2017).
